Earlier results in PubChem BioAssay AID1259409 (Chemical Carcinogenesis Research Information System (CCRIS), 2018).

Tested on: rodent chemically induced tumor inhibition, incidence and multiplicity
Assay: CCRIS tumor inhibitor studies
Text: The CCRIS database contains chemical records with carcinogenicity, mutagenicity, tumor promotion, and tumor inhibition test results. It was developed by the National Cancer Institute (NCI). Data are derived from studies cited in primary journals, current awareness tools, NCI reports, and other sources. Test results have been reviewed by experts in carcinogenesis and mutagenesis.
CCRIS provides historical information from the years 1985 - 2011. It is no longer updated.
This is an archive assay for CCRIS tumor inhibitor studies.

## CC1=C(/C=C/C(C)=C/C=C/C(C)=C\C(=O)O)C(C)(C)CCC1
Carcinogen: N-BUTYL-N-(4-HYDROXYBUTYL)NITROSAMINE, 3817-11-6, Dose [Inhibitor]: 200 MG/KG DIET DAILY STARTING 7 D AFTER LAST CARCINOGEN DOSE AND CONTINUING THROUGH THE END OF STUDY (STUDY DURATION: 6, Route [Inhibitor]: ORAL, Species: MOUSE, Strain/Sex: C57BL/MALE, Target Tissue: Type of Lesion: URINARY BLADDER: TRANSITIONAL AND SQUAMOUS CELL CARCINOMA, Dose [Carcinogen]: 7.5 MG 2/WK FOR 6 WK, Promoter: NONE USED
  tumour outcome (control, treated, inhibition, significance): 8/24 (33%), 0/19 (0%), 100%, p<0.01
Carcinogen: N-BUTYL-N-(4-HYDROXYBUTYL)NITROSAMINE, 3817-11-6, Dose [Inhibitor]: 200 MG/KG DIET DAILY STARTING 7 D AFTER LAST CARCINOGEN INTUBATION AND CONTINUING THROUGH THE END OF STUDY (STUDY DURATI, Route [Inhibitor]: ORAL, Species: MOUSE, Strain/Sex: C57BL/MALE, Target Tissue: Type of Lesion: URINARY BLADDER: NEOPLASM (CARCINOMA, NONINVASIVE TRANSITIONAL CELL PAPILLOMA), Dose [Carcinogen]: 10 MG 2/WK FOR 7 WK, Promoter: NONE USED
  tumour outcome (control, treated, inhibition, significance): 12/22 (55%), 8/25 (32%), 42%, not significant
Carcinogen: N-BUTYL-N-(4-HYDROXYBUTYL)NITROSAMINE, 3817-11-6, Dose [Inhibitor]: 200 MG/KG DIET DAILY STARTING 7 D AFTER LAST CARCINOGEN INTUBATION AND CONTINUING THROUGH THE END OF STUDY (STUDY DURATI, Route [Inhibitor]: ORAL, Species: MOUSE, Strain/Sex: C57BL/MALE, Target Tissue: Type of Lesion: URINARY BLADDER: SQUAMOUS CELL CARCINOMA, Dose [Carcinogen]: 7.5 MG 2/WK FOR 6 WK, Promoter: NONE USED
  outcome: 6/24 (25%), 0/19 (0%), p<0.05
Carcinogen: N-BUTYL-N-(4-HYDROXYBUTYL)NITROSAMINE, 3817-11-6, Dose [Inhibitor]: 200 MG/KG DIET DAILY STARTING 7 D AFTER LAST CARCINOGEN INTUBATION AND CONTINUING THROUGH THE END OF STUDY (STUDY DURATI, Route [Inhibitor]: ORAL, Species: MOUSE, Strain/Sex: C57BL/MALE, Target Tissue: Type of Lesion: URINARY BLADDER: SQUAMOUS CELL CARCINOMA, Dose [Carcinogen]: 10 MG 2/WK FOR 7 WK, Promoter: NONE USED
  tumour outcome (control, treated, inhibition, significance): 6/22 (27%), 5/25 (20%), 26%, not significant
Carcinogen: N-BUTYL-N-(4-HYDROXYBUTYL)NITROSAMINE, 3817-11-6, Dose [Inhibitor]: 200 MG/KG DIET DAILY STARTING 7 D AFTER LAST CARCINOGEN INTUBATION AND CONTINUING THROUGH THE END OF STUDY (STUDY DURATI, Route [Inhibitor]: ORAL, Species: MOUSE, Strain/Sex: C57BL/MALE, Target Tissue: Type of Lesion: URINARY BLADDER: TRANSITIONAL AND SQUAMOUS CELL CARCINOMA, Dose [Carcinogen]: 10 MG 2/WK FOR 7 WK, Promoter: NONE USED
  tumour outcome (control, treated, inhibition, significance): 10/22 (45%), 7/25 (28%), 38%, not significant
Carcinogen: N-BUTYL-N-(4-HYDROXYBUTYL)NITROSAMINE, 3817-11-6, Dose [Inhibitor]: 240 MG/KG DIET DAILY STARTING 1, 5 OR 9 WK AFTER LAST CARCINOGEN INTUBATION AND CONTINUING THROUGH THE END OF STUDY (STU, Route [Inhibitor]: ORAL, Species: RAT, Strain/Sex: F344/MALE, Target Tissue: Type of Lesion: URINARY BLADDER: TRANSITIONAL CELL CARCINOMA, Dose [Carcinogen]: 100 MG 2/WK FOR 6 WK, Promoter: NONE USED
  tumour outcome (control, treated, inhibition, significance): 53%, 47%, 11%, not significant
Carcinogen: N-BUTYL-N-(4-HYDROXYBUTYL)NITROSAMINE, 3817-11-6, Dose [Inhibitor]: 240 MG/KG DIET DAILY STARTING 1, 5 OR 9 WK AFTER LAST CARCINOGEN INTUBATION AND CONTINUING THROUGH THE END OF STUDY (STU, Route [Inhibitor]: ORAL, Species: RAT, Strain/Sex: F344/MALE, Target Tissue: Type of Lesion: URINARY BLADDER: TRANSITIONAL CELL CARCINOMA, Dose [Carcinogen]: 150 MG 2/WK FOR 6 WK, Promoter: NONE USED
  tumour outcome (control, treated, inhibition, significance): 82%, 65%, 21%, p<0.01
Carcinogen: N-BUTYL-N-(4-HYDROXYBUTYL)NITROSAMINE, 3817-11-6, Dose [Inhibitor]: 240 MG/KG DIET DAILY STARTING 1, 5 OR 9 WK AFTER LAST CARCINOGEN INTUBATION AND CONTINUING THROUGH THE END OF STUDY (STU, Route [Inhibitor]: ORAL, Species: RAT, Strain/Sex: F344/MALE, Target Tissue: Type of Lesion: URINARY BLADDER: TRANSITIONAL CELL CARCINOMA, Dose [Carcinogen]: 200 MG 2/WK FOR 6 WK, Promoter: NONE USED
  tumour outcome (control, treated, inhibition, significance): 94%, 74%, 21%, p<0.001
Carcinogen: N-BUTYL-N-(4-HYDROXYBUTYL)NITROSAMINE, 3817-11-6, Dose [Inhibitor]: 240 MG/KG DIET DAILY STARTING 1 WK AFTER LAST CARCINOGEN DOSE AND CONTINUING FOR DURATION OF STUDY (STUDY DURATION: 6 MO, Route [Inhibitor]: ORAL, Species: RAT, Strain/Sex: F344/MALE, Target Tissue: Type of Lesion: BLADDER: TRANSITIONAL CELL CARCINOMA (HIGH GRADE), Dose [Carcinogen]: 200 MG IN 0.5 ML OF 20% ETHANOL 2/WK FOR 6 WK, Promoter: NONE USED
  tumour outcome (control, treated, inhibition, significance): 9/22 (41%), 4/21(19%), 54%, p<.05
Carcinogen: N-METHYL-N'-NITRO-N-NITROSOGUANIDINE, 70-25-7, Dose [Inhibitor]: 34 NMOL ONCE 0.5 HR BEFORE CARCINOGEN APPLICATION (STUDY DURATION: 25 WK), Route [Inhibitor]: DERMAL, Species: MOUSE, Strain/Sex: CD-1/FEMALE, Target Tissue: Type of Lesion: SKIN: PAPILLOMA, Dose [Carcinogen]: 5 UMOL IN 0.2 ML ACETONE ONCE 0.5 HR AFTER AGENT TREATMENT, Promoter: 12-O-TETRADECANOYLPHORBOL-13-ACETATE, 16561-29-8
  tumour outcome (control, treated, inhibition, significance): 92%, 96%, -4%, not significant
Carcinogen: N-METHYL-N-NITROSOUREA, 684-93-5, Dose [Inhibitor]: 12.5 MG/KG DAILY IN DIET STARTING 1 D AFTER LAST CARCINOGEN INJECTION AND CONTINUING FOR 256 D (STUDY DURATION: 285 D), Route [Inhibitor]: ORAL, Species: RAT, Strain/Sex: WISTAR-LEWIS/FEMALE, Target Tissue: Type of Lesion: URINARY BLADDER: PAPILLARY UROTHELIAL TUMOR, Dose [Carcinogen]: 1.5 MG IN 0.15 ML SALINE INJECTED INTO A SURGICALLY EXPOSED BLADDER 1/2 WK FOR A TOTAL OF 3 INJECTIONS, Promoter: NONE USED
  tumour outcome (control, treated, inhibition, significance): 8/30 (27%), 2/21 (10%), 63%, p<0.05
